Assay results as given in patent US8637528B2, “Use of PDE7 inhibitors for the treatment of movement disorders” (Omeros Corporation, priority 2007, dated 2014).
“Also recorded” adds a separate entry of the source.

Key:
[1] = tested on: MPTP-treated mice; test: inked paw stride length in the MPTP mouse model of Parkinson's disease, panel of PDE7 inhibitors (Example 7); type: in vivo
Description: Adult male C57BL/6J; retired breeders, aged between 7-9 months Charles River Laboratories, Wilmington, Mass.), singly housed. Three groups of 35 mice were tested in series one week apart.
Mice received 2 subcutaneous injections of methylphenyltetrahydropyridine (“MPTP”) at a dose of 15 mg/kg (free base) with a 10-12 hour interval between injections. Control mice (sham lesion groups) were administered saline instead of MPTP.
Prior to injection with MPTP or saline, animals were pre-trained to walk across a clean sheet of paper into their home cage without stopping. For assessment of stride length, animals had their forepaws placed in black ink and the length of forepaw steps during normal walking (in a straight line only) was measured. The animals were immediately put back into their home cage upon completion of the task. Stride length was determined by measuring the distance between each step on the same side of the body, measuring from the middle toe of the first step to the heel of the second step. An average of at least four clear steps was calculated. The schedule for this experiment was as follows:
Because of the wide variation in aqueous solubility among these compounds, a number of different formulations were required. L-dopa was administered in 100 μl of phosphate buffered saline. For animals treated with L-dopa, the dopa decarboxylase inhibitor benserazide (100 μL of a 12.5 mg/kg solution) was administered 15 minutes prior to treatment with L-dopa in order to minimize the destruction of L-dopa in the peripheral blood. […] Therefore, the treatment effects observed are due solely to the PDE7 inhibitory compounds themselves. […] This phenomenon of “overshoot” has also been observed with L-dopa in MPTP-treated mice in which lower doses ameliorate hypoactivity while higher doses induce dyskinesias or uncontrolled movements (Lundblad M. et al., Exp Neurol.194(1):66-75 (2005); Pearce R. K. et al., Mov Disord. 10(6):731-40 (1995); Fredriksson, A. et al, Pharmacol-Toxicol. 67(4): 295-301 (1990)).
Retired breeder male mice were treated with either saline or 2×15 mg/kg MPTP to induce a Parkinsonian state (neurochemical loss of dopamine with corresponding behavioral deficits). On day one baseline stride length was measured and then mice were treated with either MPTP or with saline as a control. On day eight stride length was measured again, and the control value for stride length was derived from the stride length of saline-treated animals. The animals were then divided randomly into treatment groups. Compound OM955 (compound 3) was tested at 0.1 mg/kg, at 0.5 mg/kg, and at 0.1 mg/kg in combination with 1 mg/kg L-dopa.

[2] = plasma and brain concentration in mice after intraperitoneal injection (LC/MS/MS); type: in vivo, mouse
Description: Adult male C57BL/6J; retired breeders, aged between 7-9 months (Jackson Laboratory, Bar Harbor, Me., USA), singly housed.
Just prior to the harvesting of tissues, mice were anesthetized with avertin. Samples of whole brain or plasma were collected from three animals per time point at 15 minutes, 30 minutes, 60 minutes, 120 minutes, and 240 minutes after injection. Blood samples were collected by retro-orbital bleeding. Plasma was prepared and red cells were removed by centrifugation. The mice were perfused with saline to remove contaminating blood. The brains were removed and rapidly frozen in liquid nitrogen for subsequent analysis. The plasma and brain samples were stored at −80° C. or on dry ice and the concentration of compound was determined by LC/MS/MS analysis as follows:
Whole brain tissue was homogenized using a Mini-Beaddeater-8™ (BioSpec Products, Bartlesville, Okla.). Plasma or homogenized brain samples were precipitated with acetonitrile and filtered in 96-well format using Captiva 0.20 micron filtration plates (Varian Corp, Lake Forest, Calif.). Filtrates were evaporated under nitrogen to dryness at 50° C. and were then reconstituted for LC-MS analysis.
Quantitative measurements for inhibitory compound in plasma and brain samples were obtained using a Thermo Ultra triple quadrupole mass spectrometer (Thermo Fisher Scientific, San Jose, Calif.), utilizing electrospray ionization in the multiple reaction monitoring mode of data acquisition. Sample extracts were injected onto a 2.1×30 mm packed Xterra C18-MS high pressure liquid chromatography (HPLC) column (Waters Corp, Milford, Mass.). The mobile phase eluting the compound from the HPLC column was applied using a Thermo Surveyor MS Plus HPLC quaternary pumping system (Thermo Fisher Scientific, San Jose, Calif.) and a HTC PAL autoinjector (LEAP Technologies, Chapel Hill, N.C.).

[3] = biological target: PDE7A (Homo sapiens (Human), UniProt Q13946); test: initial PDE7A inhibition assay, different assay methodology; type: biochemical; settings: read-out: PDE7A IC50 in the initial assay work
[4] = biological target: PDE7B (Homo sapiens (Human), UniProt Q9NP56); test: initial PDE7B inhibition assay, different assay methodology; type: biochemical; settings: reliability questioned
[5] = biological target: Catechol-O-Methyltransferase (COMT) (Sus scrofa, UniProt D3K5L3); test: biochemical; type: biochemical, pig; settings: 10.0 μM
[6] = biological target: Monoamine Oxidase MAO-B (Homo sapiens (Human), UniProt P27338); test: Monoamine Oxidase MAO-B enzyme assay; type: biochemical
[7] = biological target: Tyrosine Hydroxylase (Rattus norvegicus (Rat), UniProt P04177); test: Tyrosine Hydroxylase enzyme assay; type: biochemical; settings: 10.0 μM
Description: Tyrosine Hydroxylase was assayed as described in Roskoski, R., Jr., et al., J. Biochem 218:363-370 (1993) with the following modifications. Tyrosine Hydroxylase was isolated from Wistar rat brain. The substrate was 100 μM L-[3,5-^3H]Tyrosine+L-Tyrosine. The vehicle control was 1% DMSO. Compound OM69 was tested at 10 μM in incubation buffer (125 mM MES, pH 6.0, 0.5 mg/ml Catalase, 12.5 mM DTT, 0.5 mM (6R)-5,6,7,8-Tetrahydrobiopterin). The reaction was pre-incubated for 15 minutes at 37° C. Tyrosine Hydroxylase enzyme was added, and the reaction was incubated for 20 minutes at 37° C. [^3H]-H20 was quantitated.

[8] = biological target: Dopamine D1 receptor (Homo sapiens (Human), UniProt P21728); test: Dopamine D1 radioligand binding assay; settings: 10.0 μM
[9] = biological target: Dopamine D4.2 receptor (Homo sapiens (Human), UniProt P21917, DEL265-296); test: Dopamine D4.2 radioligand binding assay; settings: 10.0 μM
[10] = biological target: Dopamine D5 receptor (Homo sapiens (Human), UniProt P21918); test: Dopamine D5 radioligand binding assay; settings: 10.0 μM
[11] = biological target: gabapentin receptor (Rattus norvegicus, UniProt P54290); test: Gabapentin radioligand binding assay; settings: 10.0 μM
[12] = mouse, 1.0 mg/kg IP, 15 minutes
[13] = mouse, 1.0 mg/kg IP, 30 minutes post injection

Chain of Monoamine Oxidase MAO-B (P27338 whole entry, looked up): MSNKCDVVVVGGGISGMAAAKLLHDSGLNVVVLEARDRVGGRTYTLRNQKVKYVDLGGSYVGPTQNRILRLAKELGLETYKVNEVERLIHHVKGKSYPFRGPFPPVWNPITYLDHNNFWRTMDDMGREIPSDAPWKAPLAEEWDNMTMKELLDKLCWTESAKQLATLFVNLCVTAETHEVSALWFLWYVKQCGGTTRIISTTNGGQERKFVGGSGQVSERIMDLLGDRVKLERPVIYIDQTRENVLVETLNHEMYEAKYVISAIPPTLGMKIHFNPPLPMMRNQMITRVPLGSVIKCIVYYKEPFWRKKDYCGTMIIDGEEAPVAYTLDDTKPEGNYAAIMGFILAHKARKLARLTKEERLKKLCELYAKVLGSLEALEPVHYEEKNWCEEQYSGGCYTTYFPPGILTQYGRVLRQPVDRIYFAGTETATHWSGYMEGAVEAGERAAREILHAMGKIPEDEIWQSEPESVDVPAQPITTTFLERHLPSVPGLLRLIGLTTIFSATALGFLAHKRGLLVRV
Chain of Tyrosine Hydroxylase (P04177 whole entry): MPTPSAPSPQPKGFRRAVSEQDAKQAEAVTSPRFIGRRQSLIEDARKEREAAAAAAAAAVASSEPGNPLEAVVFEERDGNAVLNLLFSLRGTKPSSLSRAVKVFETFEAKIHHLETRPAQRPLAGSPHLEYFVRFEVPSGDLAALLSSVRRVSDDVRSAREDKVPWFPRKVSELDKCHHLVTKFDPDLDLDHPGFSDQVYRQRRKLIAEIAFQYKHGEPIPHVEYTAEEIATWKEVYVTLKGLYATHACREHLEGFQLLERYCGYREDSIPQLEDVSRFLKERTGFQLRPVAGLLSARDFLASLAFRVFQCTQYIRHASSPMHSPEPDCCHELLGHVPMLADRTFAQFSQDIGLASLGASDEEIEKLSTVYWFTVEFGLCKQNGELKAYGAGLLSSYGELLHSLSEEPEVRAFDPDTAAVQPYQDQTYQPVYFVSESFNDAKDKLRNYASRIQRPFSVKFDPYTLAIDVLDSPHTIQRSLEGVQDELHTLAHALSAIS
Chain of Catechol-O-Methyltransferase (COMT) (D3K5L3 1-270): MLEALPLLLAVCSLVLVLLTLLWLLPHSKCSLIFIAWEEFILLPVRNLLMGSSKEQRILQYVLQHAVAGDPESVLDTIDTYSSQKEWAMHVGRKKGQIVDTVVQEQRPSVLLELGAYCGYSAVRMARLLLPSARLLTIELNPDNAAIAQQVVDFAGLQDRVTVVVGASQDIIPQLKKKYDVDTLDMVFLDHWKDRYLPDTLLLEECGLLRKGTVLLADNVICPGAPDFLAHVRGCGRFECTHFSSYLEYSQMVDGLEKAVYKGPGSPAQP
Chain of Dopamine D4.2 receptor (P21917 other isoform, or with tags, fused parts or gaps del 265-296): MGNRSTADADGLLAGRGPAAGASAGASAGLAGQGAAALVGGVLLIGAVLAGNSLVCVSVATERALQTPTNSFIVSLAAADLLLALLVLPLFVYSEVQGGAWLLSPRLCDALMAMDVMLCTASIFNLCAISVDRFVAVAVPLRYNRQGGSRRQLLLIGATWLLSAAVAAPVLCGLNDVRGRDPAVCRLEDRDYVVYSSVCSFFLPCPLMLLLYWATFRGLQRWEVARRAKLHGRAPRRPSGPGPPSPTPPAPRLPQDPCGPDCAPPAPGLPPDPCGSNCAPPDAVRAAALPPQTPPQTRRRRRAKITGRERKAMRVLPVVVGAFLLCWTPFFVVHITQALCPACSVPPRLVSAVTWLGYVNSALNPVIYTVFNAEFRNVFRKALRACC
Chain of gabapentin receptor (P54290 25-944 limits assumed): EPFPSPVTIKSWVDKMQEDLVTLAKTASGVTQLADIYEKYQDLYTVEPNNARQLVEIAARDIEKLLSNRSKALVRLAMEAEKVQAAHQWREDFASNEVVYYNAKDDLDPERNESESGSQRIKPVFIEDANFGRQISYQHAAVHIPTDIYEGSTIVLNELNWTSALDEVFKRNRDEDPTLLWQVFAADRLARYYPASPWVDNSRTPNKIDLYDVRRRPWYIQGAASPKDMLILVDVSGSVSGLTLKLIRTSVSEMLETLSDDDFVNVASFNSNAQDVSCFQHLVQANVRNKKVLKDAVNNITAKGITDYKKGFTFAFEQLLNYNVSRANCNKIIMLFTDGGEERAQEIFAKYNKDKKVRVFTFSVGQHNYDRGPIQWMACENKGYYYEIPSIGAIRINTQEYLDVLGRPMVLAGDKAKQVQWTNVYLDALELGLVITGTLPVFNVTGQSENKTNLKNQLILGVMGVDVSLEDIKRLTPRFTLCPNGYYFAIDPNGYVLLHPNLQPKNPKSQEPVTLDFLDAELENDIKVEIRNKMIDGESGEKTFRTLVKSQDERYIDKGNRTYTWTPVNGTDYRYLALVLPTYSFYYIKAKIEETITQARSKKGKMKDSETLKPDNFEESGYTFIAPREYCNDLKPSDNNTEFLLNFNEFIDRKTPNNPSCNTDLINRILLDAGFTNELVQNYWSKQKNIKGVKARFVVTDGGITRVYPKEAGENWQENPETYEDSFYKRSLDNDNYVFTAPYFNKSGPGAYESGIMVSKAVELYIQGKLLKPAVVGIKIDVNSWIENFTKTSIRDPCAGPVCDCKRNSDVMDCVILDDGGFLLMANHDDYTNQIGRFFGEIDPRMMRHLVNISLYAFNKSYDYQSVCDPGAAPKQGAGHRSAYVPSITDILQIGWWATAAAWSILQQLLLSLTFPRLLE
Chain of gabapentin receptor (P54290 945-1091 limits assumed): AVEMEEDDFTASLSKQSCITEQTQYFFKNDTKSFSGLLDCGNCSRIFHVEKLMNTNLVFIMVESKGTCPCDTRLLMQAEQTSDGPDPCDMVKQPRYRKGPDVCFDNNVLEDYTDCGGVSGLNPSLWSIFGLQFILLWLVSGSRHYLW
Chain of PDE7A (Q13946 whole entry, species assumed): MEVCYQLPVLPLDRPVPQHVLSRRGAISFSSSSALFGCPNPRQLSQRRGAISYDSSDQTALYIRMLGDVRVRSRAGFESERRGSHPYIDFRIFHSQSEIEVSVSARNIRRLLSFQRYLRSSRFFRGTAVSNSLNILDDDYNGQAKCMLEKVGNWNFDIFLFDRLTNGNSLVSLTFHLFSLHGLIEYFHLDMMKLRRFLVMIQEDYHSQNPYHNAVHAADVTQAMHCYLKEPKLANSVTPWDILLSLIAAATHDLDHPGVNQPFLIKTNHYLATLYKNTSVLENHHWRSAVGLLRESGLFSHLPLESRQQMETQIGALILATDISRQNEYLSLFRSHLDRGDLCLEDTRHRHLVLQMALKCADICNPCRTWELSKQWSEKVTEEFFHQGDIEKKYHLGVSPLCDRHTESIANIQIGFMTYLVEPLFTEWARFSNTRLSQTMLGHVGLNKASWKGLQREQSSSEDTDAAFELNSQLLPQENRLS
Chain of Dopamine D5 receptor (P21918 whole entry): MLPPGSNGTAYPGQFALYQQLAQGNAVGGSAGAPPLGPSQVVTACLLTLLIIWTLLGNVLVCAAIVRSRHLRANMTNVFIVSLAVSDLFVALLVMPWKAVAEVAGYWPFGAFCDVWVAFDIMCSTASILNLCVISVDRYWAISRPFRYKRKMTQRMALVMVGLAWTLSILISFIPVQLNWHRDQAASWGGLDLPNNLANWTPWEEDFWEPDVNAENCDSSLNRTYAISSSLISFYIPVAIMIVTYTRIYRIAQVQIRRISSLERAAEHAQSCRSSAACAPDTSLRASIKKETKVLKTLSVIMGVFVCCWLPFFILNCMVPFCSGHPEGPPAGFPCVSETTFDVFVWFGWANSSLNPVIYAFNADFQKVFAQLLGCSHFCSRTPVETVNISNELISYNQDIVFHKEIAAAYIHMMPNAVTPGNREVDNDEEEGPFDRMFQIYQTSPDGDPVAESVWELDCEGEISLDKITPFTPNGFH
Chain of PDE7B (Q9NP56 whole entry, species assumed): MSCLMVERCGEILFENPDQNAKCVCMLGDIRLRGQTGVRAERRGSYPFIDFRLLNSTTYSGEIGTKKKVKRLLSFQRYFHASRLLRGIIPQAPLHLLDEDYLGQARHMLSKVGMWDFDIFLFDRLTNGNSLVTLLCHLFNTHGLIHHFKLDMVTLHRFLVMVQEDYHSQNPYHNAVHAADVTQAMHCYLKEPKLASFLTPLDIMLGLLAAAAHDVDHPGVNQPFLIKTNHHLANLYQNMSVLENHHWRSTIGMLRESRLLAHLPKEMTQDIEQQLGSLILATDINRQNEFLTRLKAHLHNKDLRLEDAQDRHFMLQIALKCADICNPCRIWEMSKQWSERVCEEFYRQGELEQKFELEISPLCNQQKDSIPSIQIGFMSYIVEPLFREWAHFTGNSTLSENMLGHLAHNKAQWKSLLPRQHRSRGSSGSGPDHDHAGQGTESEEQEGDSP
Chain of Dopamine D1 receptor (P21728 whole entry): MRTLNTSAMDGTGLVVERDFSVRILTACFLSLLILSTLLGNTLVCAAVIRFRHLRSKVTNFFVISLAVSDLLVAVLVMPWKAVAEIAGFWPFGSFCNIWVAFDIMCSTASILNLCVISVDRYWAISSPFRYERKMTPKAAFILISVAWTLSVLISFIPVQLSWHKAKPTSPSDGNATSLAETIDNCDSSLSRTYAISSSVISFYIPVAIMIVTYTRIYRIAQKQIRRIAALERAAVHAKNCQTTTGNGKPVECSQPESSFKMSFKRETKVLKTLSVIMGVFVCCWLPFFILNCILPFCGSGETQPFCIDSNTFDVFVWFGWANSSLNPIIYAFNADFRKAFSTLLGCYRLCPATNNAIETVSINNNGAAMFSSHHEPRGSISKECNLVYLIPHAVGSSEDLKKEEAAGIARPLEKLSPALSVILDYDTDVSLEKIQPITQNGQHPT

SMILES: N[C@@H](Cc1ccc(O)c(O)c1)C(=O)O [L-dopa, levodopa, reference compound]
- effect on stride length, in words ([1]; L-dopa 1 mg/kg alone, 20 minutes after administration): do not increase stride length when administered alone; also recorded: does not increase stride length in MPTP mice to a significant level

SMILES: O=C1Nc2c(Cl)ccc(OCCO)c2C2(CCCCC2)N1 [OM955]
- maximal brain concentration at dose where efficacy was observed ([2]; mouse, at 0.5 mg/kg, analogous calculation): 292 nM
- effect on stride length, in words ([1]; OM955 0.1 mg/kg alone, 20 minutes after administration): do not increase stride length when administered alone; also recorded: does not increase stride length in MPTP mice to a significant level
- effect on stride length, in words ([1]; OM955 0.5 mg/kg, 20 minutes (and one hour) after injection): statistically significant improvement in the stride length; also recorded: fully restored to that of unlesioned animals; also recorded: full recovery of baseline stride length

SMILES: COc1cc(N)ccc1-c1cc2c(c(=O)[nH]1)C(C1CCCCC1)N=[N+]2C (centres unmarked) [OM69]
- IC50 [3]: 3.5 nM
- IC50 [4]: 96.9 nM
- brain tissue concentration [2, 12]: 25 ng/g
- plasma concentration [2, 12]: 51 ng/g
- peak brain level [2, 13]: 44 ng/g
- peak plasma level [2, 13]: 59 ng/g
- brain to plasma ratios ([2]; mouse, 1.0 mg/kg IP, all time points with levels above the lower limit of quantitation): 45-75%
- brain concentration converted to molar ([2]; mouse, 30 minutes after injection of a 1 mg/kg dose): 124 nM
- Ratio of Total Brain Exposure/Total Plasma Exposure ([2]; mouse, IP, AUC brain / AUC plasma, 1.0 mg/kg OM69, 10.0 mg/kg OM056, 30.0 mg/kg OM955 and OM956): 0.78
- expected maximal brain concentration ([2]; mouse, dose of 0.1 mg/kg, assuming linearity of uptake and uniform brain distribution): 12.4 nM
- time to wash out of mice ([2]; previously determined from pharmacokinetic studies): ≤ 12 h
- percent inhibition of COMT enzymatic activity [5]: 19.0%
- percent inhibition of MAO-B enzymatic activity ([6]; Exp #1, 10.0 μM): 49.0%
- percent inhibition of MAO-B enzymatic activity ([6]; Exp #2, 1.0 μM): 27%
- percent inhibition of MAO-B enzymatic activity ([6]; Exp #2, 10.0 μM): 67.0%
- IC50 ([6]; estimated from 27% inhibition at 1 μM, read-out: MAO-B IC50 indicated by the percentage inhibition): ~2700 nM
- inhibition of MAO-B at brain concentration ([6]; if present in the brain at 17 nM): less than 0.7%
- percent inhibition of Tyrosine Hydroxylase enzymatic activity [7]: 4.0%
- percent inhibition of ligand binding to Dopamine D1 [8]: −5.0%
- percent inhibition of ligand binding to Dopamine D4.2 [9]: −16.0%
- percent inhibition of ligand binding to Dopamine D5 [10]: 4.0%
- percent inhibition of ligand binding, Gabapentin [11]: 15.0%
